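Where inhibition never reached the appropriate level, the endpoint shown equals the highest concentration tested. Otherwise, values were interpolated linearly from a five-concentration, 48-hour dose response in 96-well plates. GI50: concentration for 50% inhibition of growth. TGI: concentration producing complete growth inhibition.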
How the values were obtained:
Experiment in all cases: inhibition of tumour cell growth, NCI panel, 48 h
SK-OV-3 ovarian = test system: SK-OV-3 ovarian
SN12C renal = test system: SN12C renal
COLO 205 colon = test system: COLO 205 colon
HCT-116 colon = test system: HCT-116 colon
786-0 renal = test system: 786-0 renal
NCI-H23 lung = test system: NCI-H23 lung
ACHN renal = test system: ACHN renal
RPMI-8226 leukemia = test system: RPMI-8226 leukemia
OVCAR-5 ovarian = test system: OVCAR-5 ovarian
MOLT-4 leukemia = test system: MOLT-4 leukemia

Compound	GI50 (SK-OV-3 ovarian) [µM]	TGI (SK-OV-3 ovarian) [µM]	GI50 (SN12C renal) [µM]	TGI (SN12C renal) [µM]	GI50 (COLO 205 colon) [µM]	TGI (COLO 205 colon) [µM]	GI50 (HCT-116 colon) [µM]	TGI (HCT-116 colon) [µM]	GI50 (786-0 renal) [µM]	TGI (786-0 renal) [µM]	GI50 (NCI-H23 lung) [µM]	TGI (NCI-H23 lung) [µM]	GI50 (ACHN renal) [µM]	TGI (ACHN renal) [µM]	GI50 (RPMI-8226 leukemia) [µM]	TGI (RPMI-8226 leukemia) [µM]	GI50 (OVCAR-5 ovarian) [µM]	TGI (OVCAR-5 ovarian) [µM]	GI50 (MOLT-4 leukemia) [µM]	TGI (MOLT-4 leukemia) [µM]
CC1=C(C(=O)Nc2ccc(F)c(Cl)c2)C(c2cccc(O)c2)NC(=O)N1 (configuration not stated)	> 100	> 100	> 100	> 100	> 100	> 100	70.7	> 100	> 100	> 100	> 100	> 100	> 100	> 100	55.1	> 100	> 100	> 100		
CC(=O)N[C@H]1CSSC[C@@H](C(N)=O)NC(=O)[C@H](C(C)C)NC(=O)[C@H](C)NC(=O)[C@H](Cc2cnc[nH]2)NC1=O	> 100	> 100	> 100	> 100	> 100	> 100			> 100	> 100	> 100	> 100	> 100	> 100	> 100	> 100	> 100	> 100	> 100	> 100
COc1ccc(OC)c2c(C(=O)O)c(Cc3ccccc3)ccc12		> 100		> 100		> 100		> 100		> 100		> 100		> 100				> 100		> 100
ClCc1cccc(Cn2cnc3nc(Cl)nc(Cl)c32)c1	8.41	22			1.69	4.22	0.285	0.731	0.697	1.76	1.29	2.56	0.396	0.837	1.72	4.15	1.63	3.31	1.17	2.7
Clc1ccc2c(c1)-c1c3c(nn1-c1ccccc1)-c1ccccc1SC3O2 (configuration not stated)		> 100				> 100		> 100		> 100		> 100		> 100		> 100		> 100		> 100
COc1cc(NC(C)CCCN)c2nccc(C)c2c1 (configuration not stated)		58.5		> 100		28.4		29.3		38		> 100		74.6		60.7		> 100		
O=C1NC(=O)C(CC2CCCCCCCCCCC2=O)C(=O)N1 (configuration not stated)		> 100		> 100		> 100		> 100		> 100		> 100		> 100				> 100		> 100
O=C1CCC(O)=C1N=Nc1ccccc1		> 100		> 100		> 100		> 100		> 100		> 100		> 100				> 100		> 100
CCOc1cc(C(C)(C)C)ccc1C1=N[C@@](C)(c2ccc(Cl)cc2)[C@@](C)(c2ccc(Cl)cc2)N1C(=O)N1CCN(CCCS(C)(=O)=O)CC1	14	32.9	3.84	14.5	9.53	32.6			3.2	15.4	10.4	24.9	0.505	11.3	3.13	> 100	8.41	20.8	0.375	> 100
c1ccc(C2Nc3ccccc3C3OCCCC23)cc1 (configuration not stated)				> 100		> 100		87.3		> 100		> 100		> 100		60.2		> 100		> 100
CSC(C1c2ccccc2N(c2ccc(C)cc2)c2[nH]c(=O)n(C)c(=O)c21)S(=O)(=O)c1ccc(C)cc1 (configuration not stated)		> 100		> 100		> 100		> 100		> 100		> 100				> 100		> 100		> 100
CCN(CC)c1ccc(N=Nc2ccc(-c3nc4ccc[n+](C)c4s3)cc2)cc1		38.1		16.2		11.4		20.5		59.1		24.9				25.7		31.1		24.6
C/C(CC(=O)NCCc1ccccc1)=N\NC(=O)C[n+]1ccccc1		> 100				> 100		> 100		> 100		> 100		> 100		> 100		> 100		> 100
C1C[OH+]CC[OH+]CC[OH+]CC[OH+]CC[OH+]1.[Cl-].[V]	67.8	> 100	> 100	> 100	> 100	> 100	> 100	> 100	19	43.7	76.9	> 100	75	> 100	> 100	> 100			> 100	> 100
CC(CO)(CO)NCCCCn1ccc2c1C(=O)c1c(c(O)c3ccccc3c1O)C2=O	27.4	98.7	11.2	24.2	3.01	31.3	1.58	2.92	10.9	26.9	15.8	36.4	6.27	> 100			16	29.5		
CCCCCCCCCCCCCCCCCCOc1ccccc1CC(=O)OCC[N+]1(C)CCCC1	18.9	38.8	1.94	4.27					1.71	3.25			4	16.4			2.02	5.31	2.12	4.95
COc1c(CCl)cc(-c2cc(=O)c3ccccc3s2)cc1CCl		> 60.2		> 100		> 100		> 100		1.74		> 100		> 100		> 100		> 100		
C=CCc1ccc(Oc2cc(CC=C)c3c(c2O)O[C@@H](CO)[C@H]3c2ccc(O)c(-c3cc(CC=C)ccc3O)c2)cc1		> 100		> 100		> 100		> 100		> 100		> 100		> 100		> 100		> 100		
